According to the supplement of paper PMC10307832:

Key:
Assay in all cases: relative viability (nuclei count vs DMSO), 5 days (fraction); higher = more cells survive
Metformin + Linsitinib = compound: CN(C)C(=N)NC(=N)N [Metformin] + C[C@]1(O)C[C@@H](c2nc(-c3ccc4ccc(-c5ccccc5)nc4c3)c3c(N)nccn32)C1 [Linsitinib] (partner 1 µM)
Outline: (§1)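 For relative viability, nuclei counts in treated wells were divided by those in vehicle wells. Lung cancer cell lines had been pin-tool dosed in 1536-well plates the day after seeding and cultured for 5 days, then fixed and stained in one step (final 0.05% Triton X-100, 1% formaldehyde, 1 ug/ml Hoechst) and imaged at 4×. Doses were one drug alone or a fixed anchor-drug dose plus five library-drug doses (not always all listed) in √10 steps, and values are duplicate-plate medians.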

Apatinib + Crizotinib = compound: N#CC1(c2ccc(NC(=O)c3cccnc3NCc3ccncc3)cc2)CCCC1 [Apatinib] + C[C@@H](Oc1cc(-c2cnn(C3CCNCC3)c2)cnc1N)c1c(Cl)ccc(F)c1Cl [Crizotinib] (partner 1 µM)
Outline: as §1

Apatinib + Pemetrexed = compound: N#CC1(c2ccc(NC(=O)c3cccnc3NCc3ccncc3)cc2)CCCC1 [Apatinib] + Nc1nc2[nH]cc(CCc3ccc(C(=O)N[C@@H](CCC(=O)O)C(=O)O)cc3)c2c(=O)[nH]1 [Pemetrexed] (partner 0.2 µM)
Outline: as §1

Apatinib + Olaparib = compound: N#CC1(c2ccc(NC(=O)c3cccnc3NCc3ccncc3)cc2)CCCC1 [Apatinib] + O=C(c1cc(Cc2n[nH]c(=O)c3ccccc23)ccc1F)N1CCN(C(=O)C2CC2)CC1 [Olaparib] (partner 8 µM)
Outline: as §1

| Cell Line | relative viability (Metformin + Linsitinib; first compound 10 µM) | relative viability (Metformin + Linsitinib; first compound 31.62 µM) | relative viability (Metformin + Linsitinib; first compound 100 µM) | relative viability (Metformin + Linsitinib; first compound 316.23 µM) | relative viability (Metformin + Linsitinib; first compound 1000 µM) | relative viability (Apatinib + Crizotinib; first compound 0.08 µM) | relative viability (Apatinib + Crizotinib; first compound 0.253 µM) | relative viability (Apatinib + Crizotinib; first compound 0.8 µM) | relative viability (Apatinib + Crizotinib; first compound 2.53 µM) | relative viability (Apatinib + Crizotinib; first compound 8 µM) | relative viability (Apatinib + Pemetrexed; first compound 0.08 µM) | relative viability (Apatinib + Pemetrexed; first compound 0.253 µM) | relative viability (Apatinib + Pemetrexed; first compound 0.8 µM) | relative viability (Apatinib + Pemetrexed; first compound 2.53 µM) | relative viability (Apatinib + Pemetrexed; first compound 8 µM) | relative viability (Apatinib + Olaparib; first compound 0.08 µM) | relative viability (Apatinib + Olaparib; first compound 0.253 µM) | relative viability (Apatinib + Olaparib; first compound 0.8 µM) | relative viability (Apatinib + Olaparib; first compound 2.53 µM) | relative viability (Apatinib + Olaparib; first compound 8 µM) |
| --- | --- | --- | --- | --- | --- | --- | --- | --- | --- | --- | --- | --- | --- | --- | --- | --- | --- | --- | --- | --- |
| UMC-11 | 1.07 | 1.09 | 1.12 | 1.04 | 1.14 | 0.619 | 0.57 | 0.617 | 0.519 | 0.493 | 0.783 | 0.771 | 0.716 | 0.663 | 0.433 | 1.14 | 0.411 | 0.397 | 0.328 | 0.365 |
| H3255 | 0.942 | 1.08 | 0.961 | 0.938 | 0.873 | 0.956 | 0.841 | 0.907 | 0.723 | 0.786 | 0.521 | 0.545 | 0.537 | 0.518 | 0.533 | 0.621 | 0.627 | 0.609 | 0.516 | 0.455 |
| NCI-H1651 | 1.3 | 1.23 | 1.35 | 1.21 | 1.43 | 0.916 | 0.86 | 0.84 | 0.8 | 0.733 | 0.552 | 0.555 | 0.556 | 0.531 | 0.483 | 0.192 | 0.206 | 0.186 | 0.17 | 0.172 |
| SK-MES-1 | 0.979 | 0.927 | 0.993 | 0.939 | 1.02 | 0.983 | 0.937 | 0.897 | 0.955 | 0.796 | 0.976 | 0.915 | 0.937 | 0.757 | 0.568 | 0.858 | 0.665 | 0.627 | 0.592 | 0.411 |
| NCI-H1355 | 0.782 | 0.783 | 0.756 | 0.731 | 0.854 | 1.04 | 1.03 | 1.03 | 0.943 | 0.815 | 1.09 | 1.01 | 1 | 0.898 | 0.918 | 0.787 | 0.798 | 0.745 | 0.647 | 0.616 |
| HOP-62 | 0.891 | 1.09 | 0.995 | 1.04 | 0.846 | 0.989 | – | 0.868 | 0.935 | 0.654 | 0.333 | 0.31 | 0.289 | 0.244 | 0.16 | 0.328 | 0.396 | 0.407 | 0.354 | 0.282 |
| HCC-366 | 0.646 | 0.703 | 0.75 | 0.559 | 0.691 | 0.437 | 0.587 | 0.605 | 0.466 | 0.547 | 0.192 | 0.159 | 0.129 | 0.121 | 0.0888 | 0.435 | 0.372 | 0.249 | 0.292 | 0.245 |
| BEN | 1.21 | 1.27 | 1.3 | 1.15 | 1.29 | 0.957 | 1 | 0.94 | 0.671 | 0.65 | 0.64 | 0.563 | 0.71 | 0.696 | 0.534 | 1.35 | 1.24 | 1.13 | 0.987 | 0.774 |
